Reference: paper PMC11434980, “Deciphering Chemical Rules for Drug Penetration into Strongyloides” (Pharmaceutics, 2024)
Where “and” joins values, the source holds several entries; their conditions need not be identical. Equal values may be shown once. Read-outs that look alike come from different tables or passages of the source.

Legend:
[1] = tested on: S. venezuelensis L3s; assay: microbe, parasite or virus in culture; settings: L3s
Protocol: (§1) Baerman-obtained S. venezuelensis L3s were rinsed twice with distilled water and counted, and 100 to 150 larvae were placed per well in 96-well flat-bottom culture plates. Larvae were incubated at 28 °C for 30 min to allow adaptation and treated with compounds in the range of 0.5–40 µM for 72 h at 28 °C in a humid atmosphere. Mortality was assessed as the lack of any movement detected during 1 min of observation under an inverted microscope (40×), at 24, 48, and 72 h after treatment. The ability to stain the larvae was pointed out when observed; at 72 h, larvae were collected and washed two times with distilled water and placed in a new well to remove the background color and photographed. Pictures were also taken at 24 and 48 h without cleaning the larvae so as not to interfere with the 72 h readout of the experiment. […] All experiments were conducted in triplicate and at least three different times. The antiparasitic activity of the compounds was expressed as the concentration that inhibited the motility of half of the larvae (immobilization concentration 50, IC50).
A total of 15 dyes were tested against S. venezuelensis L3s at a 20 µM concentration. The activity was determined by the number of larvae lacking motility relative to the total number in the well after 1 min of light excitation at 24, 48, and 72 h after treatment.

[2] = tested on: parasitic females of S. venezuelensis; assay: In vitro activity against adult females (movement categories); type: cell-based, Strongyloides venezuelensis; settings: 10 µM, 50–70 worms per well
Protocol: Seven to nine days after infection, the mice or rats were euthanized and the small intestine was removed, sliced longitudinally, minced, and placed in a sedimentation cup wrapped in 8 layers of gauze in phosphate-buffered solution (PBS) for two hours at 37 °C. Parasitic females were collected from the sediment and washed twice with saline solution (NaCl 0.15 mol/L) and twice with Roswell Park Memorial Institute 1640 (RPMI 1640) (Gibco, Whaltman, MA, USA) supplemented with 10% heat-inactivated FBS, 100 µg/mL streptomycin, and 100 U/mL penicillin (Gibco, Whaltman, MA, USA) to avoid contamination during the in vitro assays. After collection, females were placed in 96-well plates with supplemented RPMI medium and kept at 37 °C. We tested three different female population densities to explore the effects on the measured activity: 1–3 females, 10–15 females, and 50–70 females per well. At 24 h after plating, the compounds were applied at 10 µM and the anti-parasitic activity was evaluated at 1, 24, 48, and 72 h after treatment based on movement for 30 s observation periods under the microscope (40×). […] All experiments were conducted in duplicate and at least three different times. […]

[3] = Cytotoxicity, MTT method; type: cell-based, human; settings: human; HeLa cells, 72 h, MTT; read-out: HeLa IC50 (antiproliferative activity / cytotoxicity)
Protocol: (§2) A cytotoxicity test was performed using the HeLa (human cervical cancer) cell line according to the MTT method. Cells were from the ATCC (Manassas, VA, USA). They were cultured at 37 °C in sub-confluent conditions under a 95% humidified atmosphere and 5% CO2 in Dulbecco’s Modified Eagle Medium (DMEM) (Gibco, Whaltman, MA, USA) supplemented with 10% heat-inactivated FBS, 2 mM L-glutamine, 100 U/mL penicillin, and 100 µg/mL streptomycin. […] The antiproliferative activity was measured in triplicate after 72 h using the MTT (3-(4,5-dimethylthiazol-2-yl)-2,5-diphenyltetrazolium bromide) Cell Proliferation Kit (Roche, Boston, MA, USA), following the manufacturer’s specifications. […] The selectivity index (SI = HeLa IC50/L3 IC50) for each compound was calculated to compare the antiparasitic activity with its respective human cell cytotoxicity.

[4] = tested on: HeLa (human cervical cancer) cell line; assay: Cytotoxicity, MTT method; type: cell-based
Protocol: as §2

[5] = tested on: S. venezuelensis L3s; assay: Staining (uptake) of L3 larvae by the dyes; type: cell-based, Strongyloides venezuelensis; settings: for lowest staining concentration (Conc): 72 h
Protocol: as §1

[6] = tested on: parasitic females of S. venezuelensis; assay: Staining of adult females by the dyes; type: cell-based, Strongyloides venezuelensis; settings: 10 µM
[7] = tested on: parasitic females of S. venezuelensis; assay: In vitro activity against adult females (movement categories); type: cell-based, Strongyloides venezuelensis; settings: 72 h
[8] = tested on: S. venezuelensis experimental infections of mice; assay: In vivo activity in S. venezuelensis experimental infection of mice (eggs in feces, parthenogenetic females); design: species or system Strongyloides venezuelensis; settings: for reduction in the number of parthenogenetic females: day 8 p.i., compared to infection group; for parthenogenetic females recovered per mouse at day 8 p.i.: ivermectin 0.2 mg/kg oral day 5 p.i., dyes 20 mg/kg/day day 0 to 5 p.i.
Protocol: All animals were infected by subcutaneous injection with 3000 […] of S. venezuelensis resuspended in PBS. […] The eggs per gram was reported. The recovery of parasite females was performed as described above. The mean was determined for the eggs per gram (EPG) of feces and parthenogenetic female counts. The color of the feces and urine in the beds was recorded.

[9] = tested on: parasitic females of S. venezuelensis; design: method as in PMID 35914566; settings: never achieving complete absence of movement at these concentrations; read-out: IC50 against adult females (literature); cited from earlier work
[10] = read-out: IC50 72 h (immobilization concentration 50 of cultured L3s), 72 h

Compound	Screening 20 µM 72 h ([1]; 72 h)	activity against L3 at 40 µM [1]	effect on adult females [2]	Activity against parasitic females 1 h [2]	Activity against parasitic females 24 h [2]	Activity against parasitic females 48 h [2]	Activity against parasitic females 72 h [2]	IC50 at 72 h [3] [µM]	selectivity index (SI = HeLa IC50/L3 IC50) [4]	IC50 [1, 10] [µM]	Staining 72 h (L3 staining ability) [5]	lowest staining concentration (Conc) [5] [µM]	Staining of parasitic females [6]	staining of adult females [6]	reduction in the number of parthenogenetic females [8] [%]	parthenogenetic females recovered per mouse at day 8 p.i. [8]	further results
COC(=O)Nc1nc2ccc(C(=O)c3ccccc3)cc2[nH]1 [Mebendazole]	No	no activity	slightly reduced movement	Healthy	Healthy	Slightly affected	Slightly affected	0.2	< 0.005								
CN(C)c1ccc2nc3ccc(=[N+](C)C)cc-3sc2c1 [Methylene Blue]			significantly affected	Healthy	Affected	Death	Death	1.1		4.3 ± 0.3	Yes	1	Yes	clearly stained			Staining (Time) ([6]; time at which staining of females was seen): 24 h; IC50 [7]: 6.02 µM
CN(C)c1ccc(C(=C2C=CC(=[N+](C)C)C=C2)c2ccc(N(C)C)cc2)cc1 [Crystal Violet]	Active			Healthy	Healthy	Slightly affected	Slightly affected	1	0.31		Yes	2	No	did not stain	46.5	182	
Ivermectin	Active		noticeable spasmodic movement	Affected	Affected	Slightly affected	Slightly affected			1.5 ± 0.3					91.5	29 ± 12.3 and 29	IC50 ([1]; read-out: IC50 24 h (immobilization concentration 50 of cultured L3s), 24 h): 2.1 ± 0.1 µM; IC50 ([1]; read-out: IC50 48 h (immobilization concentration 50 of cultured L3s), 48 h): 1.6 ± 0.3 µM; IC50 ([4]; HeLa cells, 72 h, MTT, read-out: HeLa IC50 (antiproliferative activity / cytotoxicity)): 5.9 µM; Eggs in feces at peak, day 5 p.i. ([8]; ivermectin (Noromectin) single oral dose 0.2 mg/kg on day 5 p.i.): 20,534 ± 15,961 eggs per gram; IC50 [9]: > 229 µM
CCCSc1ccc2nc(NC(=O)OC)[nH]c2c1 [Albendazole]	No	no activity	slightly reduced movement	Healthy	Healthy	Slightly affected	Slightly affected	0.3	< 0.0075								
